Measurements: US8834843B2, “Imaging method” (GE Healthcare Limited, priority 2007, dated 2014)
Numbered stars: 1 amine (or outer) side, 2 acyl side, 3 side chain; on linkers, the order of the positions; unused ones are H or OH. Bridge positions count the residues as written; N and C are the ends. Side chains are listed from the residue outwards. Peptide text beside a SMILES is read from it. * marks the point of attachment. X3 = CC[N+]1=C(/C=C/C=C/C=C2/N(CCCCCC(=O)*)c3ccc4c(S(=O)(=O)O)cc(S(=O)(=O)O)cc4c3C2(C)C)C(C)(C)c2c1ccc1c(S(=O)(=O)O)cc(S(=O)(=O)O)cc21; X4 = CC1=[N+]([O-])[Tc]23(=[O])(=[O])[N](CCC(CCN*)CC[N]2C(C)(C)C(C)=[N+]3[O-])C1(C)C; Glutaryl = O=C(CCCC(=O)[*:2])[*:1]

Legend:
EA-Hy926 membranes = experiment: Competitive binding assay with 125I-echistatin on EA-Hy926 membranes; set-up: species or system human
Protocol: The inhibition constant of Compound 6 was measured using a previously-described membrane binding assay (Indrevoll et al, Bioorg & Med Chem Lett, 2006, 16, 6190-6193).
In brief, membranes from the human endothelial adenocarcinoma cell line EA-Hy926 were prepared and the Kd calculated for the purified membrane fraction. A competitive binding assay was then established to measure inhibition constants for cold Compound 6. ^125I-echistatin was used as the labelled ligand and cold echistatin as a reference standard.
A total of sixteen dilutions of cold test compound (either cold echistatin or cold Compound 6) were prepared and mixed with a combination of ^125I-echistatin and membrane prior to incubation for 1 hour at 37° C. Following several washes, the bound material was harvested on a filter using a Skatron micro harvester. The filterspots were finally excised and counted in a Packard γ-counter.
The inhibition constants for Compound 3 and Compound 8 were determined using the method described in Example 1. FIG. 3 illustrates binding of ^125I-echistatin versus cold Compound 3, Compound 8 and echistatin on EA-Hy926 membranes.

[1] = system: Activated human hepatic stellate cells, LX-2; experiment: Binding to activated human hepatic stellate cells LX-2
Protocol: Activated human hepatic stellate cells, LX-2 (provided by Prof. Scott L. Friedman, Mount Sinai School of Medicine, New York), were cultured in 12-well plates (Nunc) to confluence in Dulbeccos Modified Eagels Medium containing 10% FBS, streptomycin and glutamine. The cells were washed twice in a cold buffer containing 50 mM Tris, pH 7.4, 150 mM NaCl, 5 mM MnCl2, 1 mM CaCl2 and 0.01% BSA. The cells were further incubated in the buffer containing a trace amount of labelled compound (either 0.1 nM ^125I Compound 6 or 0.1 nM ^125I-echistatin) together with various concentrations of cold compound for 60 min at 4° C. with shaking. Following incubation, the unbound material was removed by washing the cells 3 times with cold buffer. The cells were detached from the wells by adding 0.1M NaOH and transferred to a tube to be counted in a gamma-counter (Packard). FIG. 2 illustrates the observed activity values.

[2] = system: fibrogenic livers in BDL model; experiment: Liver uptake in BDL vs sham rats at 15 days post-op, vs negative control; format: in vivo, rat; details: one hour post-injection
Protocol: On the appropriate day post surgery BDL and sham animals were removed and put under isoflurane anaesthesia, then each animal was injected with 0.3 ml intravenously (i.v.) via tail vein (˜3MBq). At the appropriate time point post-injection of the test item, each animal was re-anaesthetised with isoflurane, sacrificed by cervical dislocation weighed and the weight recorded via a barcode scanning system. Each animal was dissected and the following organs and tissues were removed and counted using BASIL counter protocol 40 or manual counting:
The BDL and sham animal models were set up as described in Example 3. At 15 days post-operatively, one of Compound 3, Compound 8 or a negative control was administered to each animal and liver uptake assessed as described in Example 3.

SMILES | Binding to EA-Hy926 membranes (in words) (EA-Hy926 membranes) | Ki (EA-Hy926 membranes; cold compound vs 125I-echistatin, 1 hour at 37° C., read-out: Ki in the EA-Hy926 membrane assay) [nM] | Binding to activated human hepatic stellate cells (in words) [1] | EC50 ([1]; 0.1 nM 125I labelled compound plus cold compound, 60 min at 4° C., read-out: EC50 in the LX-2 cell assay) [nM] | Liver retention/uptake in BDL compared to sham animals (in words) [2]
N=C(N)NCCC[C@@H]1NC(=O)[C@@H]2CSSC[C@H](NC(=O)[C@H](CC(=O)O)NC(=O)CNC1=O)C(=O)N[C@@H](Cc1ccccc1)C(=O)N[C@H](C(=O)NCCOCCOCCOCCNC(=O)COCC(N)=O)CSCC(=O)N[C@@H](CCCCNC(=O)c1cccc([123I])c1)C(=O)N2 [Compound 6] | binding specifically | ~10 | binding specifically | ~1 | 
CC[N+]1=C(/C=C/C=C/C=C2/N(CCCCCC(=O)NCCCC[C@@H]3NC(=O)CSC[C@@H](C(=O)NCC(=O)N[C@@H](CCCCNC(=O)CCCC(=O)NCCC4CC[N]5C(C)(C)C(C)=[N+]([O-])[Tc]56(=[O])(=[O])[N](CC4)C(C)(C)C(C)=[N+]6[O-])C(N)=O)NC(=O)[C@H](CCCNC(=N)N)NC(=O)[C@@H]4CSSC[C@H](NC3=O)C(=O)NCC(=O)N[C@@H](CC(=O)O)C(=O)N[C@@H](Cc3ccccc3)C(=O)N4)c3ccc4c(S(=O)(=O)O)cc(S(=O)(=O)O)cc4c3C2(C)C)C(C)(C)c2c1ccc1c(S(=O)(=O)O)cc(S(=O)(=O)O)cc21 (some centres unmarked) [negative control, reference compound] ({CH2CO}-K(X3)CGDFCRCGK([Glutaryl-X4])-NH2; disulfide 2-6; thioether N-8) |  |  |  |  | no significant difference
